From US11400082B2, “Methods of treating elevated plasma cholesterol” (Montréal Heart Institute, priority 2017, dated 2022)
Like-named read-outs stand apart in the source and are kept apart here.

Assays:
[1] = Pharmacokinetics in adult Sprague-Dawley rats; format: in vivo; settings: average n = 4; for Cmax / AUC / AUC(0-t): rat blood
Procedure: All animal studies were approved by the Montreal Heart Institute (MHI) Animal Care and Ethical committee. Pharmacokinetic experiments were performed in collaboration at the Montreal Heart Institute in collaboration with the Platform of Biopharmacy at Université de Montréal. Briefly, Compound 2 (formulation PG:H20; 50:50 stock solution 2.5 mg/ml) was administered intravenously (iv) at 5 mg/kg (n=4) or by oral gavage (PO) at 25 mg/kg (n=4) in adult Sprague-Dawley male rats (˜200 g). […] Samples were mixed and centrifuged at 15000 rpm for 5 min. 50 μL of supernatant were transferred to an HPLC plate, and 100 μL of water+0.1% formic acid were added. […] Samples were analyzed in MRM mode using LC-MS/MS. The calibration curve was plotted using the ratio of the analyte peak area and the IS peak area, using a quadratic regression. Pharmacokinetic (PK) parameters were calculated using Kinetica Software for PK/PD Data Analysis, Simulation and Reporting (Thermo Fisher), based on the blood concentrations of each animal. Results are described in Table 4 and illustrated in FIG. 20.

[2] = Cell viability assay (MTT); format: cell-based; settings: human; overnight incubation, viability relative to DMSO
Procedure: Following incubation, media was replaced and cells incubated for 4 h with 100 μL of phenol red-free DMEM containing 0.5 mg/mL of MTT (3-[4,5-dimethylthiazol-2-yl]-2,5-diphenyltetrazolium bromide; thiazolyl blue; catalog no. M5655, Sigma-Aldrich). Afterwards, media was removed and converted dye solubilized with 100 μL acidic isopropanol (0.06 N) and absorbance measured at a wavelength of 570 nm with background subtraction at 650 nm. Arbitrary units of cell viability of a given example were determined relative to equal volume of DMSO (vehicle) for each concentration used.

C57BL/6 mice = experiment: Efficacy and safety in hypercholesterolemic animal models, C57BL/6 mice; format: in vivo
Procedure: (§1) For in vivo proof-of-concept animal studies, wild-type C57BL/6 male mice (˜25 g; obtained from Charles River Laboratories) or Golden Syrian (˜120 g obtained from Envigo++) were housed in the 12 hour light/12 hour dark cycle, temperature and humidity controlled MHI animal facility. […] TD.88137, Envigo) for 14 days. […] Equivalent volume of vehicle containing corresponding formulations were orally administered to mice daily and designated as placebo (vehicle). […] Total cholesterol (catalog no. 439-17501, Wako) was quantified in total plasma and in each 0.3 mL collected fractions or in-line (Lipidomics Core of The Group on Molecular and Cell Biology of Lipids, University of Alberta) according to the manufacturer's instructions. Relative quantitation of AUC of total cholesterol corresponding to non-HDL lipoprotein positive fractions obtained from FPLC profiles are included in Table 3. Serum aspartate aminotransferase (AST) and alanine transaminase (ALT) were measured by the Montreal Heart Institute biochemical clinical chemistry platform according to manufacturer's recommendations.

in vitro = settings: pH 7.4; for -k: 1 μM; for half-life at 1 μM / microsomal CLint at 1 μM: microsomes
Procedure: Pooled human liver microsomes (HLM; Cat #X008067 lot IHG) and pooled male Sprague Dawley rat liver microsomes (RLM; Cat #M00001 Lot NNK) were purchased from BioreclamationIVT, Baltimore, Md. NADPH (Cat #N1630, 95% HPLC) and DMSO (GC grade) were purchased from Sigma-Aldrich, Canada. Potassium phosphate buffer (100 mM) with magnesium chloride pH 7.4 was prepared freshly. […] Reactions were initiated by adding NADPH (final concentration 1 mM) in all the wells. Reactions without NADPH were also incubated (final point only) to rule out non-NADPH metabolism or chemical instability in the incubation buffer. Reactions were terminated at each time point (0, 5, 10, 20, 30, 45 and 60 min) by transferring 50 μL in a new 96 well plate and adding 100 μl of acetonitrile containing an internal standard (labetalol at 2 μM). The plates were centrifuged at 4000 rpm for 5 min, and an aliquot of supernatant was diluted with one volume of water+0.1% formic acid before analysis by LC-MS/MS. Reference samples were also prepared at concentrations between 0.002 and 2 μM in buffer containing microsomes, by adding the diluted solutions of the compound to the buffer containing microsomes quenched with 2 volume of acetonitrile containing the internal standard (whereas the incubation T0 is obtained by quenching the microsomes containing the compound, then adding NADPH). Samples were monitored for parent compound disappearance in Multi Reaction Monitoring (MRM) mode using LC-MS/MS. The peak area ratios of analyte versus internal standard compared to the calibration curve were used to calculate concentration at each time point. The elimination constant (ke, min-1) was obtained from the log-linear regression of the concentration (y) versus time (t). The half-life was calculated as T½ (min)=0.693/ke. The microsomal intrinsic clearance (Clint, μL/min/mg of protein) was calculated by the following equation: […]

Golden Syrian = experiment: Efficacy and safety in hypercholesterolemic animal models, Golden Syrian; format: in vivo; settings: 10 days
Procedure: as §1

[3] = male, Sprague-Dawley, rat, whole blood, PO 25 mg/kg
[4] = male, Sprague-Dawley, rat, whole blood, iv 5 mg/kg
[5] = male, Sprague-Dawley, whole blood, PO 25 mg/kg
[6] = male, Sprague-Dawley, whole blood, iv 5 mg/kg
[7] = C57BL/6, HFD, 40 mpk/d, 10 days, animals out of n
[8] = HFD, 40 mpk/d, animals out of n

## O=C(NO)c1ncc(COc2ccc(F)cc2)c(CO)c1O [Compound 2, 5-(4-fluoro-phenoxymethyl)-3-hydroxy-4-hydroxymethyl-pyridine-2-carboxylic acid hydroxyamide]
[1]; PO 25 mg/kg
  Lz: 0.24 h⁻¹
  Vss: 2.43 L
  clearance: 13.44 mL/min
  thalf: 2.97 h
  Cmax: 7.09 μMolar
[1]; iv 5 mg/kg
  Lz: 0.12 h⁻¹
  thalf: 6.60 h
  Cmax: 81.12 μMolar
[1]; male, Sprague-Dawley, rat, whole blood, PO 25 mg/kg vs iv 5 mg/kg
  bioavailability: 15%
[1]; [3]
  MRT: 3.44 h
  Tmax: 0.33 h
[1]; [4]
  MRT: 0.55 h
  Tmax: 0.08 h
[1]; male, Sprague-Dawley, rat, whole blood, iv 5 mg/kg, read-out: Clearance
  clearance: 2.2 mL/min
[1]; male, Sprague-Dawley, rat, whole blood, iv 5 mg/kg, read-out: Vss
  Vd: 0.08 L
[1]; [5]
  AUC: 24.3 µM·h
  AUC(0-t): 24.2 µM·h
[1]; [6]
  AUC: 31.9 µM·h
  AUC(0-t): 31.8 µM·h
[2]
  CC50: 50 µM
C57BL/6 mice; C57BL/6, Chow, 25 mpk/d oral gavage, 3 days, n 3
  LDL-C (%) (FPLC TC) (pooled plasma): −31%
C57BL/6 mice; C57BL/6, HFD, 5 mpk/d oral gavage, 10 days, n 4
  LDL-C (%) (FPLC TC) (pooled plasma): −3 ± 8%
C57BL/6 mice; C57BL/6, HFD, 25 mpk/d oral gavage, 10 days, n 4
  LDL-C (%) (FPLC TC) (pooled plasma): −28 ± 8%
C57BL/6 mice; C57BL/6, HFD, 40 mpk/d oral gavage, 10 days, n 4
  LDL-C (%) (FPLC TC) (pooled plasma): −35 ± 2%
C57BL/6 mice; [7]
  ALT (3 × ULN): 0/4
  AST (3 × ULN): 0/4
In vitro; human
  -k: 0.000703 ± 1.9e-05 min⁻¹
  half-life at 1 μM: 16.4 ± 0.45 h
  microsomal CLint at 1 μM: 1.17 ± 0.03 µL/min/mg
In vitro; male, Sprague Dawley, rat
  -k: 0.00126 ± 0.00019 min⁻¹
  half-life at 1 μM: 6.73 ± 0.467 h
  microsomal CLint at 1 μM: 6.19 ± 0.42 µL/min/mg
Golden Syrian; Chow, 40 mpk/d, n 3
  LDL-C (%) (FPLC TC) (pooled plasma): −12%
Golden Syrian; HFD, 5 mpk/d, n 3
  LDL-C (%) (FPLC TC) (pooled plasma): −21 ± 10%
Golden Syrian; HFD, 10 mpk/d, n 3
  LDL-C (%) (FPLC TC) (pooled plasma): −15 ± 16%
Golden Syrian; HFD, 20 mpk/d, n 3
  LDL-C (%) (FPLC TC) (pooled plasma): −40 ± 7%
Golden Syrian; [8]
  ALT (3 × ULN): 0/3
  AST (3 × ULN): 0/3
Golden Syrian; HFD, 40 mpk/d, n 3 (second HFD 40 mpk/d line)
  LDL-C (%) (FPLC TC) (pooled plasma): −26 ± 12%
Golden Syrian; HFD, 40 mpk/d, n 3, value marked (n = 1)
  LDL-C (%) (FPLC TC) (pooled plasma): −47%
